The experiment deals with T1, mushroom tyrosinase.
T1 construct: gene PPO1
The experiment is described as follows: L-dopa oxidation, absorbance at […] nm. The note with it: L-dopa 2 mM stock, phosphate pH 6.8, 37 °C, 30 min; positive control. Type of experiment: biochemical.

Results on one molecule are retold here after article PMC11767586, “Cuphea hookeriana: Phytochemical Profile and the Cosmeceutical and Dermatological Properties of Its Active Fraction from the Whole Plant” (Molecules, 2025).

Molecules are shown by their SMILES. ≈ marks a conversion by molar mass, not a printed value.

As usually defined, the IC50 is the midpoint of a concentration-inhibition curve.

With `OC[C@H]1O[C@H](Oc2ccc(O)cc2)[C@H](O)[C@@H](O)[C@@H]1O` [α-arbutin], the IC50 was 0.27 mg/mL (≈ 992 µM).
